# Laboratory results published in patent publication US4814348A, “Therapeutic compositions containing derivatives of acrylic acid having an oxygen-containing heterocycle, therapeutic treatment therewith and new compounds” (Roussel Uclaf, priority 1983, dated 1989).
# Key:
# [1] = Acute oral toxicity (median lethal dose) in mice; conditions: mouse, in vivo, oral administration
# Procedure: The median lethal dose (LD50) was evaluated upon oral administration of the products to mice.
# [2] = system: total acidity of the gastric secretions; assay: Gastric antisecretory activity in pylorus-ligated rats (Shay technique); format: in vivo; conditions: dose of 10 mg/kg, intraduodenal, male rats, 3 hours
# Procedure: B. Determination of the gastric antisecretory activity
# The technique used is described by H. Shay et al in Gastro. Enterology, 5 43 (1945).
# Male rats are used of a weight of about 200 g, which had been deprived of food for 48 hours, but with 8% glucose solution ad libitum. The pylorus of the rats, which had been slightly anesthetized with ether, is ligated and then, upon the end of the operation, the product to be tested is administered in different doses or, in the case of the control animals, an 0.5% solution of carboxymethyl cellulose is administered intraduodenally, whereupon the abdominal incision is sutured.
# Three hours later, the animals are sacrificed and their stomachs removed after ligation of the esophagus.
# The gastric juice is removed and centrifuged. The volume is then noted and the total acidity is determined on 100 μl of gastric juice by titration to a pH of 7 by means of 1/100N caustic soda.
# The percentages of variation of total acidity of the gastric secretions are calculated, as compared with the results obtained with the control animals.
Structure (SMILES),LD50 [1] [mg/kg],percentage of variation of total acidity of the gastric secretions as compared with control animals [2] [%]
"Cc1cc(O)c(C(=O)C=CC(=O)O)c(=O)o1 [Example 2, 4-(2-oxo-4-hydroxy-6-methyl-2H-pyran-3-yl)-4-oxo-buten-2-oic acid]",350,70
"Cc1ccc(C(=O)/C=C/C(=O)O)o1 [Example 6, Trans 4-(5-methyl-2-furyl)-4-oxo-2-butenoic Acid]",350,75
"O=C(O)C=CC(=O)c1ccco1 [Example 3, 4-(2-furyl)-4-oxo-buten-2-oic acid]",750,94
"Cc1nc(C(=O)/C=C/C(=O)O)c(C)o1 [Example 4, Trans 4-(2,5-dimethyl-oxazol-4-yl)-4-oxo-buten-2-oic acid]",350,77
"O=C(O)C=CC(=O)c1cc2ccccc2o1 [Example 1, 4-(benzofuran-2-yl)-4-oxo-buten-2-oic acid]",350,53
"Cc1noc(C)c1C(=O)/C=C/C(=O)O [Example 5, Trans-4(3,5-dimethyl-isoxazol-4-yl)-4-oxo-buten-2-oic acid]",350,87
"Cc1cc(C(=O)/C=C/C(=O)O)c(C)o1 [Example 7, Trans 4-(2,5-dimethyl-3-furyl)-4-oxo-2-butenoic Acid]",350,45
